Consider 90 compounds from a melting point compilation (Tetko et al.; mined from patent text by program, amines drawn as free bases though some values may be those of a salt).

The melting point is the temperature of the solid-liquid transition.

On to `CCCC[C@@H](NC(=O)OC(C)(C)C)C(=O)NCC(=O)OCc1ccccc1`, for which the melting point fell in the range of 85 to 86 °C.

Consider `CC(C)c1nn2ccccc2c1SC#N`, for which the melting point fell in the range of 91 to 92.5 °C.

In turn, `CCCCCCN(Cc1ccccc1)Cc1nc(-c2ccc(-c3ccccc3)cc2)c[nH]1` displayed a melting point of 120 to 122 °C.

For `Cc1cc(C)c2c(C)coc2c1Cc1ccc(C(C)C)cc1`, the melting point was in the range of 106 to 107 °C.

With `CCOC(=O)C(=O)c1ccc2c(c1)CCO2`, the melting point is 139 to 141 °C.

In turn, `Cc1cc(F)ccc1Nc1nc(N2CCc3ccccc3C2C)c2cccc(OCCO)c2n1` (stereo not given) returned a melting point of 120 to 122 °C.

For `C=C(COCC(=C)C(=O)O)C(=O)O`, the melting point amounted to 177 °C.

`CCCCCCCCCCOc1ccc(CC(C)NCC(O)c2cccc(Cl)c2)cc1` (stereo not given) registered a melting point of 59 to 61 °C.

`CNC1CCCN(c2c(F)cc3c(=O)c(C(=O)O)cn(C4CC4)c3c2OC)C1` (stereo not given) showed a melting point of 134 to 135 °C.

`O=C(O)c1cn(-c2ccc(F)cc2F)c2nc(Cl)c(F)cc2c1=O` returned a melting point of 242 to 244 °C.

Compound `Clc1cc(C(Cl)(Cl)Cl)c(Cl)cc1C(Cl)(Cl)Cl` had a melting point of 202 to 203 °C.

In the case of `Nc1cc(=O)n(Cc2ccccc2[N+](=O)[O-])[nH]1`, the melting point is 190 °C.

For the compound `Cc1oc(-c2ccccc2)nc1CCc1noc(COc2ccccc2CC(=O)O)n1`, the melting point lay in the range of 120 to 121 °C.

`Cc1cc(-c2ccc(C(F)(F)F)cc2)cn2c(-c3nc(-c4cccc(S(N)(=O)=O)c4)no3)cnc12` registered a melting point of 326 °C.

For `CCOC(=O)C1(C(=O)Nc2ccc(Br)cc2C)CC1`, the melting point was in the range of 89.5 to 90 °C.

For `Cc1sc(-n2nc(C(=O)O)nc2CCl)c(C(=O)c2ccccc2)c1C`, the melting point is 162 to 163 °C.

`CCOC(=O)c1c(OCC)cc(C(F)(F)F)nc1C(F)(F)F` came in with a melting point of 57 to 59 °C.

With `O=c1[nH]c(NCCSCc2ccco2)ncc1Cc1cccnc1`, the melting point was 136 to 139 °C.

For the compound `COc1ccc(Cl)cc1N1CCN(CCCNC(=O)c2c(-c3ccccc3)noc2C)CC1`, the melting point lay within 139 to 142 °C.

Take `Brc1coc(-c2cn([C@H]3CN4CCC3CC4)nn2)c1`: the melting point amounted to 129 °C.

Regarding `CN(C)CC1CC(c2ccc(S(C)(=O)=O)cc2)=C(c2cc(F)cc(F)c2)C1=O` (stereo not given), the melting point lay in the range of 104 to 106 °C.

With `CCCCCCCCCCCCCS(=O)c1nc(NC(=O)Nc2c(C(C)C)cccc2C(C)C)n[nH]1` (stereo not given), the melting point lay in the range of 178 to 181 °C.

As to `Cc1cc(C#N)cnc1Oc1c(Cl)cc(N)cc1Cl`, the melting point turned out to be 212 °C.

`NNC(=O)Nc1cccc2c1C(=O)c1c-2n[nH]c1-c1ccc(N2CCNCC2)cc1` gave a melting point of 257 °C.

In turn, `COC(=O)CCC(CNC(=O)C(C)(Cc1c[nH]c2ccccc12)NC(=O)OC1C2CC3CC(C2)CC1C3)c1ccccc1` (stereo not given) gave a melting point of 69 to 76 °C.

With `CC(C)(C)OC(=O)N1CCC(OCc2ccccc2)C1CC(O)Cn1cnc2ccc(F)c(F)c2c1=O` (stereo not given), the melting point was 218 °C.

As to `CSc1nccc(-c2ssc(=S)c2C)n1`, the melting point is 170 to 172 °C.

For the compound `CCn1c(=O)ccc2cnc(Nc3cccc(F)c3)nc21`, the melting point lay within 210 to 212 °C.

As to `COc1ccc2c(Cc3ccco3)nnc(-c3ccccc3)c2c1`, the melting point lay in the range of 128 to 129 °C.

The compound `CC(NC(=O)C(CS)C(C)c1ccc(O)cc1)C(=O)O` (stereo not given) showed a melting point of 72 °C.

In turn, `CC(=O)c1ccc(C2=CCCCC2)cc1` showed a melting point of 76 to 77 °C.

With `CCCCOc1ccc2c3c([nH]c2c1)CC(NC(C)=O)CC3` (stereo not given), the melting point lay within 182 to 184 °C.

In turn, `Cc1c(C)c2c(c(C)c1NC=O)OC(C)(C)C2=O` gave a melting point of 191 to 192 °C.

The compound `O=C(CCCN1CCCCC1)c1ccc2c(c1)C(=O)c1cc(C(=O)CCCN3CCCCC3)ccc1-2` showed a melting point of 168 to 170 °C.

For `COCC(COC)(CN(C)CCP(C)(C)=S)SCc1ccccc1`, the melting point worked out at 74 °C.

Compound `COc1ccc(Nc2c(C#N)cnc3cc(OC)c(OC)cc23)cc1Cl` showed a melting point of 278 to 280 °C.

Compound `COC(=O)C1(C)CN(C(=O)Nc2ccc(C(F)(F)F)cc2)N=C1c1ccc(Cl)cc1` (stereo not given) yielded a melting point of 143 to 146 °C.

The compound `CCCCCCCCCCCCCCCCCCOc1ccc(OCCCOc2ccc(OCc3ccccc3)cc2)c(C(=O)OC)c1` returned a melting point of 79 to 81 °C.

In turn, `N#CC1=Nc2nc(C3CCCC3)[nH]c2C2=N[C@H](Cc3ccccc3)CN12` had a melting point of 140 to 142 °C.

For `COc1ccc(Cc2sccc2OC2OC(CO)C(O)C(O)C2O)cc1` (stereo not given), the melting point lay in the range of 154 to 155 °C.

For `CN(Cc1cc[nH]n1)C1CCCN(C(=O)c2ccc(Nc3nccc(Nc4ccc(F)cc4)n3)cc2)C1` (stereo not given), the melting point lay in the range of 120 to 140 °C.

`CCOc1cc2c(cc1OCC)[C@@H]1CCCC[C@@H]1N=C2c1ccc(Cl)nc1` (racemic) gave a melting point of 123 to 126 °C.

Compound `CCN(CC)Cc1cc(C(=O)c2ccc(Cl)cc2)cc(C(C)(C)C)c1O` displayed a melting point of 95 to 96.5 °C.

The compound `COC(=O)c1ccc(-c2ccc(C#N)s2)nc1` showed a melting point of 164 to 166 °C.

Turning to `CCC(C)C(C)CNc1cccc(-c2ccnc3c(C(=O)c4cccs4)cnn23)c1` (stereo not given), the melting point was in the range of 84 to 86 °C.

Regarding `c1ccc2c(C3CCNCC3)n[nH]c2c1`, the melting point fell in the range of 213 to 215 °C.

In turn, `O=C(c1ccccc1)c1ccc(O)c(O)c1[N+](=O)[O-]` yielded a melting point of 153 to 155 °C.

With `CNc1cccc(F)c1C#N`, the melting point lay within 130 to 132 °C.

Consider `COC(CCNC(=O)C(F)(F)F)(c1ccccc1)c1ccccc1`, for which the melting point lay in the range of 108 to 110 °C.

Turning to `O=C(Cc1ccc(Cl)cc1)NC1N=C(c2ccccc2)c2ccccc2NC1=O` (stereo not given), the melting point is 238 to 240 °C.

For `COC1OCC[C@@H]1NC(=O)[C@H](CC(C)C)NC(=O)[C@H](CC(C)C)NC(=O)[C@H](CC(C)C)NC(=O)c1ccc2c(c1)Nc1ccccc1S2` (stereo not given in full), the melting point is 164 to 165 °C.

`CCCCCCCCCCCCCCCCCC(O)c1ccc(C2=NC(C)(C)CO2)c(Cl)c1` (stereo not given) had a melting point of 74 to 78 °C.

As to `O=[N+]([O-])c1cnn(-c2c(Cl)cc(Cl)cc2Cl)c1O`, the melting point fell in the range of 106 to 115 °C.

The compound `CCN(CC)CCNC(=O)c1cc(NS(C)(=O)=O)c(Cl)cc1OC` yielded a melting point of 123 to 124 °C.

Compound `CC(=O)Nc1ccc(C=NNC(N)=S)cc1Cl` yielded a melting point of 235 to 238 °C.

Compound `Fc1ccc2c(c1)C(=C1CCNCC1)c1ccccc1C=C2` yielded a melting point of 161 °C.

As for `O=C(NCC1(c2ccccc2)CCCC1)Nc1ccc(F)cc1F`, the melting point was in the range of 160 to 161 °C.

The compound `C=Cc1c(C(C)C)nc(C(C)C)c(CCCCC)c1-c1ccc(F)cc1` yielded a melting point of 44 to 46 °C.

Regarding `Cc1cc(C(C)(C)C)c(O)c(C)c1COC(=O)CCCCC(=O)OCc1c(C)cc(C(C)(C)C)c(O)c1C`, the melting point lay within 156 to 158 °C.

`O=c1ccc2c([N+](=O)[O-])cccc2n1O`: the melting point was found to be 205 °C.

Consider `NC(=O)CN1C(=O)C[C@@H]2CCC[C@@H]21` (relative stereo), for which the melting point lay within 142 to 144 °C.

Compound `COc1ccc(S(=O)(=O)C2(C(=O)O)CCCC2)cc1` registered a melting point of 89 to 91 °C.

Compound `CSc1nc(Cl)c2ncccc2n1` gave a melting point of 120 to 121 °C.

The compound `ClCc1nc(-c2ccccc2)c(-c2ccccc2)o1` returned a melting point of 43 to 45 °C.

`COc1cc2nc(N(C)C)nc(N)c2cc1OC`: the melting point was 223 to 224 °C.

The compound `COc1ccccc1CNC(=O)C1N(C(=O)C(O)C(Cc2ccccc2)NC(=O)c2cccc(O)c2C)CSC1(C)C` (stereo not given) showed a melting point of 123 to 125 °C.

`O=C(O)C(O)=CC(=O)c1cn(Cc2ccccc2)c(=O)n(Cc2ccccc2)c1=O` had a melting point of 186 to 188 °C.

In turn, `O=C(O)c1cccc2nc3n(c12)CCC3` returned a melting point of 310 to 312 °C.

Regarding `COc1cc(C)c(CCCCCCCCCCCCCCCCCCCCCCO)c(O)c1OC`, the melting point was in the range of 78 to 81 °C.

The compound `Cc1c(C(=O)Nc2ccc(OCC(C)(C)C)c(C#N)c2)cnn1-c1cccc(C(F)(F)F)c1` returned a melting point of 116 to 118 °C.

Turning to `Cc1cc(C(=O)CS(C)(=O)=O)cc(C)c1N(C)C`, the melting point is 132 to 133 °C.

With `CCNC(=O)NC[C@H]1CN(c2ccc3c(c2)CCCc2cnoc2-3)C(=O)O1`, the melting point is 193 to 196 °C.

Turning to `N#CCCN(N)c1nc2ccccc2s1`, the melting point lay within 111 to 113 °C.

`O=C1/C(=C/c2cccs2)CNc2cc(OCCn3ccnc3)ccc21`: the melting point fell in the range of 211 to 213 °C.

As to `Cc1ccccc1C(=O)Nc1ccc(-n2nc(C(F)(F)F)cc2C2CC2)c(F)c1`, the melting point is 142 to 144 °C.

As to `Cc1ccc(S(=O)(=O)OCCC2(C)OCCc3nc(-c4ccccc4)sc32)cc1` (stereo not given), the melting point is 86 to 87 °C.

`COc1cccc2c(=O)c(C(C)=O)c[nH]c12`: the melting point is 287 to 289 °C.

Compound `OC1CCc2cnc3c(c21)CCO3` (stereo not given) came in with a melting point of 130 to 131 °C.

As to `Cn1nc2c(N)nc3c(c2c1CC(C)(C)O)CCCC3`, the melting point is 228 to 234 °C.

In turn, `CCCCc1c(CNC(=O)OC(C)(C)C)c(CC(C)C)nc2ccc(O)cc12` gave a melting point of 198 to 200 °C.

For the compound `CCc1ccc(C#Cc2ccc(Br)cc2)cc1`, the melting point amounted to 117 °C.

`OC[C@@H](O)CNCc1ccccc1`: the melting point is 63 °C.

As for `CCC(c1ccccc1)(c1ccccc1)c1ccnc(C(=O)O)c1`, the melting point is 191 to 193 °C.

In turn, `CCCC(Oc1ccc2c(-c3ccc(Cl)cc3)noc2c1)C(=O)O` (stereo not given) had a melting point of 170 °C.

As for `N#Cc1c(C(N)=O)nn2c(-c3cccc(C(F)(F)F)c3)ccnc12`, the melting point fell in the range of 236 to 238 °C.

In the case of `CC(=O)c1ccc(S(=O)(=O)NC(C)(C)C(=O)O)cc1`, the melting point lay in the range of 157 to 158 °C.

As for `CC(=O)NC1Cc2cc(CCN3CCN(c4nsc5ccccc45)CC3)ccc2C1(C)C` (stereo not given), the melting point is 58 to 68 °C.

`CCCCCCOc1cc(CC#N)c(OCCCCCC)cc1CC#N` gave a melting point of 96 to 97 °C.

Consider `CCOC(=O)Cn1c2ccc(Cl)ccc-2c(C(=O)OCC)c1=O`, for which the melting point was in the range of 177 to 179 °C.

As for `CC(C)(C)c1cc(CC#Cc2ccc(C(=O)O)cc2)cc(C(C)(C)C)c1O`, the melting point is 198 to 199 °C.
